Experimental data as given in ChEMBL document CHEMBL5042513, “Discovery of 2H-chromone-4-one based sulfonamide derivatives as potent retinoic acid receptor-related orphan receptor γt inverse agonists” (Eur J Med Chem, 2022).
Each block holds one compound with its values, some of them ahead of it.

How the values were obtained:
[1] = Lipophilicity, logD of the compound at pH 7.4; settings: buffer
[2] = Metabolic stability in human liver microsomes assessed as parent compound remaining level at 10 uM in presence of NADPH incubated for 60 mins by HPLC-MS/MS analysis
in vitro [3] = settings: human, liver microsomes
Description: Metabolic stability in human liver microsomes assessed as intrinsic clearance at 10 uM in presence of NADPH by HPLC-MS/MS analysis

in vitro [4] = settings: human, liver microsomes; remark: listed apart in the source
Description: Metabolic stability in human liver microsomes assessed as half life at 10 uM in presence of NADPH by HPLC-MS/MS analysis

[5] = target: T1, Nuclear receptor ROR-gamma (Homo sapiens, UniProt P51449); assay: Displacement of BODIPY from APC-labelled RORgammat LBD (unknown origin) incubated for 1 hrs by binding assay
T1 sequence (P51449 whole entry): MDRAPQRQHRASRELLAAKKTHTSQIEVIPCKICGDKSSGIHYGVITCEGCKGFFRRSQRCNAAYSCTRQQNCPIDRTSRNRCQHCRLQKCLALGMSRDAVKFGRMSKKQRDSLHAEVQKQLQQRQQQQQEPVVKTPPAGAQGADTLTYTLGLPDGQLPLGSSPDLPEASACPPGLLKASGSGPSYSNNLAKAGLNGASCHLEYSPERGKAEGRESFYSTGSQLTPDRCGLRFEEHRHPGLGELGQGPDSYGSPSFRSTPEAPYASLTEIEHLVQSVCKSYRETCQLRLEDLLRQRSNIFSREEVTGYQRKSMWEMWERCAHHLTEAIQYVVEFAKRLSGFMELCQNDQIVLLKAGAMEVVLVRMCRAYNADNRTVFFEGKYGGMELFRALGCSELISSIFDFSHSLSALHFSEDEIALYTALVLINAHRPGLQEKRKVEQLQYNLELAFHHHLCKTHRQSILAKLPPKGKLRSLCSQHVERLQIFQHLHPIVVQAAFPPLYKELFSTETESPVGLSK

[6] = target: T1, Nuclear receptor ROR-gamma
Description: Inverse agonist activity at RORgammat (unknown origin) transfected in human Jurkat cells assessed as inhibition of RORgammat transcriptional activity incubated for 8 hrs by luciferase reporter gene assay

in vivo [7] = settings: mouse, po, 1 mg/kg
Mus musculus [8] = species on record: Mus musculus; assay: animal or person; settings: BALB/c, po, 312 h, read-out: INH
Description: Protection against imiquimod-induced psoriasis model of BALB/c mouse assessed as inhibition of psoriasis clinical score at 10 mg/kg, po administered for 13 days

in vivo [9] = settings: mouse, po, 1 mg/kg; remark: listed apart in the source
in vivo [10] = settings: mouse, po, 1 mg/kg; remark: listed apart in the source
in vivo [11] = settings: mouse, iv, 0.3 mg/kg
in vivo [12] = settings: mouse, iv, 0.3 mg/kg; remark: listed apart in the source
in vivo [13] = settings: mouse, po, 1 mg/kg; remark: listed apart in the source
in vivo [14] = settings: mouse, iv, 0.3 mg/kg; remark: listed apart in the source
in vivo [15] = settings: mouse, po, 1 mg/kg; remark: listed apart in the source
Mus musculus [16] = species on record: Mus musculus; assay: animal or person; settings: BALB/c, po, 312 h, read-out: INH; remark: listed apart in the source
Description: Protection against imiquimod-induced psoriasis model of BALB/c mouse assessed as inhibition of psoriasis clinical score at 20 mg/kg, po administered for 13 days

in vivo [17] = settings: mouse, po, 1 mg/kg; remark: listed apart in the source
in vivo [18] = settings: mouse, iv, 0.3 mg/kg; remark: listed apart in the source
in vivo [19] = settings: mouse, iv, 0.3 mg/kg; remark: listed apart in the source
in vivo [20] = settings: mouse, iv, 0.3 mg/kg; remark: listed apart in the source
in vivo [21] = settings: mouse, iv, 0.3 mg/kg; remark: listed apart in the source

Compound: CCc1ccc(N(C2CCC2)S(=O)(=O)c2ccc3c(c2)C(=O)CC(C2CCOCC2)O3)cc1 (stereo unspecified)
logD [1]: 3.78

Compound: CCc1ccc(N(CC(C)C)S(=O)(=O)c2ccc3cc(OCC4CCOCC4)c(C(=O)OCC4CCOCC4)cc3c2)cc1
logD [1]: 6.34

Compound: CCc1ccc2c(c1)CC(C)CN2S(=O)(=O)c1ccc2c(c1)C(=O)CC(C1CCOCC1)O2 (stereo unspecified)
IC50 [5]: > 10 µM
logD [1]: 3.77
IC50 [6]: > 10 µM

Compound: CCc1ccc(N(CC(C)C)S(=O)(=O)c2ccc(OCC3CCOCC3)c3c2CCCC3=O)cc1
logD [1]: 4.84

Compound: CCS(=O)(=O)c1ccc(CNS(=O)(=O)c2ccc3c(c2)C(=O)CC(C2CCOCC2)O3)nc1 (stereo unspecified)
IC50 [5]: > 10 µM
logD [1]: 0.32
IC50 [6]: > 10 µM

Compound: Cc1ccc(NS(=O)(=O)c2ccc3c(c2)C(=O)CC(C2CCOCC2)O3)c(C)c1 (stereo unspecified)
logD [1]: 2.75

Compound: Cc1ccc(N(C2CCC2)S(=O)(=O)c2ccc3c(c2)C(=O)CC(C2CCOCC2)O3)c(C)c1 (stereo unspecified)
remaining at 1 h, 10 µM [2]: 4.5%
logD [1]: 3.86
CLint scaled at 10 µM (in vitro [3]): 202 mL/min/kg
half-life at 10 µM (in vitro [4]): 6.2 min

Compound: CCc1ccc(N(CC(C)C)S(=O)(=O)c2ccc3cc(OCC4CCOCC4)c(C(=O)OC)cc3c2)cc1
logD [1]: 6.09

Compound: CCc1ccc(N(CC(C)C)S(=O)(=O)c2ccc3cc(OCC4CCOCC4)c(CO)cc3c2)cc1
logD [1]: 5.1

Compound: CCc1ccc(NS(=O)(=O)c2ccc3c(c2)C(=O)CC(C2CCOCC2)O3)cc1 (stereo unspecified)
logD [1]: 2.67

Compound: CCc1ccc(N(CC(C)C)S(=O)(=O)c2ccc3c(c2)C(=O)CC(C2CCN(S(=O)(=O)C4CCCC4)CC2)O3)cc1 (stereo unspecified)
logD [1]: 4.75

Compound: CCc1ccc(N(CC(C)C)S(=O)(=O)c2ccc3c(c2)C(=O)CC(C2CCN(S(C)(=O)=O)CC2)O3)cc1 (stereo unspecified)
logD [1]: 3.31

Compound: CCc1ccc(N(CC(C)C)S(=O)(=O)c2ccc3c(c2)C(=O)N(C2CCOCC2)C3)cc1
logD [1]: 3.64

Compound: CCc1ccc(N(CC(C)C)S(=O)(=O)c2ccc3c(c2)C(=O)CC(C2CCN(C(=O)OC(C)(C)C)CC2)O3)cc1 (stereo unspecified)
IC50 [5]: > 10 µM
logD [1]: 5.1
IC50 [6]: > 10 µM

Compound: CCc1ccc(N(Cc2ccccc2)S(=O)(=O)c2ccc3c(c2)C(=O)CC(C2CCOCC2)O3)cc1 (stereo unspecified)
logD [1]: 4.84

Compound: CCc1ccc(N(CC(C)C)S(=O)(=O)c2ccc(OCC3CCOCC3)c(CO)c2)cc1 [GSK2981278]
remaining at 1 h, 10 µM [2]: 0.2%
CLint scaled at 10 µM (in vitro [3]): 1610 mL/min/kg

Compound: CCc1ccc(N(CC(C)C)S(=O)(=O)c2ccc3cc(OCC4CCOCC4)c(C(=O)O)cc3c2)cc1
IC50 [5]: > 10 µM
logD [1]: 1.77
IC50 [6]: > 10 µM

Compound: CCc1ccc(N(C2COC2)S(=O)(=O)c2ccc3c(c2)C(=O)CC(C2CCOCC2)O3)cc1 (stereo unspecified)
IC50 [5]: > 10 µM
logD [1]: 2.72
IC50 [6]: > 10 µM

Compound: CCc1ccc(N(CC(C)C)S(=O)(=O)c2ccc3oc(C4CCOCC4)cc(=O)c3c2)cc1
logD [1]: 4.5

Compound: O=C1CC(C2CCOCC2)Oc2ccc(S(=O)(=O)N3CCCC3c3ccccc3C(F)(F)F)cc21 (stereo unspecified)
logD [1]: 3.5

Compound: CCc1ccc(N(CC(C)C)S(=O)(=O)c2ccc3c(c2)C(=O)CC(C2(C)CCOCC2)O3)cc1 (stereo unspecified)
logD [1]: 4.71

Compound: CCc1ccc(N(CC(C)C)S(=O)(=O)c2ccc3c(c2)C(=O)CC(C2CCN(C(=O)C4CCCC4)CC2)O3)cc1 (stereo unspecified)
logD [1]: 5.13

Second part, led by results:

logD [1]: 3.97
Compound: CCc1ccc(N(CC(F)(F)F)S(=O)(=O)c2ccc3c(c2)C(=O)CC(C2CCOCC2)O3)cc1 (stereo unspecified)

remaining at 1 h, 10 µM [2]: 0.2%
logD [1]: 3.48
CLint scaled at 10 µM (in vitro [3]): 1760 mL/min/kg
half-life at 10 µM (in vitro [4]): 0.7 min
Compound: CC(C)CN(c1ccc(F)cc1)S(=O)(=O)c1ccc2c(c1)C(=O)CC(C1CCOCC1)O2 (stereo unspecified)

logD [1]: 3.44
Compound: CC(C)CN(c1ccccc1F)S(=O)(=O)c1ccc2c(c1)C(=O)CC(C1CCOCC1)O2 (stereo unspecified)

logD [1]: 4.03
Compound: CC(C)CN(C1CCc2ccc(F)cc21)S(=O)(=O)c1ccc2c(c1)C(=O)CC(C1CCOCC1)O2 (stereo unspecified)

logD [1]: 3.5
Compound: CC(C)CN(c1cccc(F)c1)S(=O)(=O)c1ccc2c(c1)C(=O)CC(C1CCOCC1)O2 (stereo unspecified)

logD [1]: 4.53
Compound: CCc1ccc(N(CC(C)C)S(=O)(=O)c2ccc3c(c2)C(=O)CC(CC2CCOCC2)O3)cc1 (stereo unspecified)

remaining at 1 h, 10 µM [2]: 23%
logD [1]: 3.77
CLint scaled at 10 µM (in vitro [3]): 55.8 mL/min/kg
half-life at 10 µM (in vitro [4]): 22.3 min
Compound: CCc1ccc(N(CC2CC2)S(=O)(=O)c2ccc3c(c2)C(=O)CC(C2CCOCC2)O3)cc1 (stereo unspecified)

logD [1]: 2.21
Compound: CCc1ccc(N(CC(C)C)S(=O)(=O)c2ccc3c(c2)C(=O)CC(C2CCNCC2)O3)cc1 (stereo unspecified)

logD [1]: 4.1
Compound: CCc1ccc(N(CC2CCC2)S(=O)(=O)c2ccc3c(c2)C(=O)CC(C2CCOCC2)O3)cc1 (stereo unspecified)

Tmax at 24 h (in vivo [7]): 95.4 min
half-life at 24 h (in vivo [9]): 88.2 min
bioavailability at 24 h (in vivo [10]): 47%
remaining at 1 h, 10 µM [2]: 50.2%
half-life at 24 h (in vivo [11]): 56.4 min
Vd at 24 h (in vivo [12]): 1.62 L/kg
AUC(0-t) at 24 h (in vivo [13]): 212 ng·h/mL
logD [1]: 3.04
CLint scaled at 10 µM (in vitro [3]): 21.1 mL/min/kg
Cmax at 24 h (in vivo [14]): 75 ng/mL
AUC(0-inf) at 24 h (in vivo [15]): 219 ng·h/mL
half-life at 10 µM (in vitro [4]): 59 min
Cmax at 24 h (in vivo [17]): 82 ng/mL
Tmax at 24 h (in vivo [18]): 61.2 min
AUC(0-inf) at 24 h (in vivo [19]): 140 ng·h/mL
clearance at 24 h (in vivo [20]): 30.2 mL/min/kg
AUC(0-t) at 24 h (in vivo [21]): 135 ng·h/mL
Compound: Cc1nc(N2CCOCC2)ccc1N(CC(C)C)S(=O)(=O)c1ccc2c(c1)C(=O)CC(C1CCOCC1)O2 (stereo unspecified)
inhibition in vivo at 10 mg/kg (Mus musculus [8]): 54.5%
inhibition in vivo at 20 mg/kg (Mus musculus [16]): 77.7%

logD [1]: 4.01
Compound: CC(C)CN(c1cc2ccccc2s1)S(=O)(=O)c1ccc2c(c1)C(=O)CC(C1CCOCC1)O2 (stereo unspecified)

logD [1]: 4.97
Compound: CC(C)CN(c1ccc(C(C)(C)C)cc1)S(=O)(=O)c1ccc2c(c1)C(=O)CC(C1CCOCC1)O2 (stereo unspecified)

logD [1]: 4.32
Compound: CC(C)CN(Cc1ccccc1C(F)(F)F)S(=O)(=O)c1ccc2c(c1)C(=O)CC(C1CCOCC1)O2 (stereo unspecified)

logD [1]: 3.16
Compound: CC(C)CN(c1ccc(C#N)cc1)S(=O)(=O)c1ccc2c(c1)C(=O)CC(C1CCOCC1)O2 (stereo unspecified)

logD [1]: 4.93
Compound: CCc1ccc(N(CC(C)C)S(=O)(=O)c2ccc3c(c2)C(=O)CC(C(C)C2CCOCC2)O3)cc1 (stereo unspecified)

logD [1]: 3.62
Compound: CC(C)CN(c1ccc(F)cc1F)S(=O)(=O)c1ccc2c(c1)C(=O)CC(C1CCOCC1)O2 (stereo unspecified)

remaining at 1 h, 10 µM [2]: 11.5%
logD [1]: 3.6
CLint scaled at 10 µM (in vitro [3]): 98.5 mL/min/kg
half-life at 10 µM (in vitro [4]): 12.8 min
Compound: CC(C)CN(c1ccc(N(C)C)cc1)S(=O)(=O)c1ccc2c(c1)C(=O)CC(C1CCOCC1)O2 (stereo unspecified)

logD [1]: 5.02
Compound: CCc1ccc(N(CC(C)C)S(=O)(=O)c2ccc3c(c2)C(F)CC(C2CCOCC2)O3)cc1 (stereo unspecified)
